Measured values published in publication PMC12136037, “Type II kinase inhibitors that target Parkinson’s disease–associated LRRK2” (Science Advances, 2025).

Tests used:
Assay in all cases: DSF 100 kinase selectivity screen;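 note: compound tested at 20 µM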
Format in all cases: binding
[1] = target: T1, ~100 representative kinases (Homo sapiens, UniProt O14965); settings: Protein STK6; DSF; average of three replicates
T1 construct: Recombinant protein kinase domains with a concentration of 2 μM
T1 sequence (O14965 1-403): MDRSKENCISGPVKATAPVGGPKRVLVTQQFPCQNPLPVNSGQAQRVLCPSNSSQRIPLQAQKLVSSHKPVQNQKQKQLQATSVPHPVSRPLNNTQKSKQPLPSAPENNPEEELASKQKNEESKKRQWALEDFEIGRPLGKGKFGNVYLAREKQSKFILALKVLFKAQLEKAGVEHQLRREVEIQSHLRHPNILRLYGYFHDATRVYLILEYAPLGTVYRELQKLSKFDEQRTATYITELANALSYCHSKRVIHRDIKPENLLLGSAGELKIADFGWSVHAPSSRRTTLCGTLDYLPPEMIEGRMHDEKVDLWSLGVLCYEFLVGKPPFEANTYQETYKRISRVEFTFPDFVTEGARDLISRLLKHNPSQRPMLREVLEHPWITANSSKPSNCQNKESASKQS
Outline: (§1)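 Each kinase domain, at 2 μM, is mixed with 20 μM test compound and SYPRO Orange in Hepes (20 mM, pH 7.5) with 500 mM NaCl. Temperature is then raised at 3°C/min and fluorescence-monitored unfolding yields the melting temperature change, ΔTm in degrees Celsius.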

[2] = target: T2, ~100 representative kinases (Homo sapiens, UniProt O75582); settings: Protein RPS6KA5; DSF; average of three replicates
T2 construct: Recombinant protein kinase domains with a concentration of 2 μM
Outline: as §1

[3] = target: T3, ~100 representative kinases (Homo sapiens, UniProt P21675); settings: Protein TAF1; DSF; average of three replicates
T3 construct: Recombinant protein kinase domains with a concentration of 2 μM
Outline: as §1

[4] = target: T4, ~100 representative kinases (Homo sapiens, UniProt P21802); settings: protein FGFR2; average of three replicates
T4 construct: Recombinant protein kinase domains with a concentration of 2 μM
Outline: as §1

[5] = target: T5, ~100 representative kinases (Homo sapiens, UniProt P51955); settings: protein NEK2; average of three replicates
T5 construct: Recombinant protein kinase domains with a concentration of 2 μM
T5 sequence (P51955 1-445): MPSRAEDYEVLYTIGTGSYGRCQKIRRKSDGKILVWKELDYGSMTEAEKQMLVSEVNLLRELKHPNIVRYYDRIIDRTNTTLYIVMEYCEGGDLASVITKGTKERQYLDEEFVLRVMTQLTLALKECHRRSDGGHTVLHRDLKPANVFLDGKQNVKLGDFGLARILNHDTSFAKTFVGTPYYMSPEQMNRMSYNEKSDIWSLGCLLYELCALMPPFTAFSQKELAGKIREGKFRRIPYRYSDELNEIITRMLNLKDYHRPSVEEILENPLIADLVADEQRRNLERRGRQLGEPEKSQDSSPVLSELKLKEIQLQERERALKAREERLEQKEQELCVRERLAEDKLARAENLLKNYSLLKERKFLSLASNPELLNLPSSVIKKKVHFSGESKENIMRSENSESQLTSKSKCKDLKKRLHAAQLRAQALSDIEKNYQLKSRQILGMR
Outline: as §1

[6] = target: T6, ~100 representative kinases (Homo sapiens, UniProt Q15418); settings: Protein RPS6KA1; DSF; average of three replicates
T6 construct: Recombinant protein kinase domains with a concentration of 2 μM
Outline: as §1

[7] = target: T7, ~100 representative kinases (Homo sapiens, UniProt Q86V86); settings: protein PIM3; average of three replicates
T7 construct: Recombinant protein kinase domains with a concentration of 2 μM
Outline: as §1

[8] = target: T8, ~100 representative kinases (Homo sapiens, UniProt Q96L34); settings: protein MARK4; average of three replicates
T8 construct: Recombinant protein kinase domains with a concentration of 2 μM
T8 sequence (Q96L34 1-752): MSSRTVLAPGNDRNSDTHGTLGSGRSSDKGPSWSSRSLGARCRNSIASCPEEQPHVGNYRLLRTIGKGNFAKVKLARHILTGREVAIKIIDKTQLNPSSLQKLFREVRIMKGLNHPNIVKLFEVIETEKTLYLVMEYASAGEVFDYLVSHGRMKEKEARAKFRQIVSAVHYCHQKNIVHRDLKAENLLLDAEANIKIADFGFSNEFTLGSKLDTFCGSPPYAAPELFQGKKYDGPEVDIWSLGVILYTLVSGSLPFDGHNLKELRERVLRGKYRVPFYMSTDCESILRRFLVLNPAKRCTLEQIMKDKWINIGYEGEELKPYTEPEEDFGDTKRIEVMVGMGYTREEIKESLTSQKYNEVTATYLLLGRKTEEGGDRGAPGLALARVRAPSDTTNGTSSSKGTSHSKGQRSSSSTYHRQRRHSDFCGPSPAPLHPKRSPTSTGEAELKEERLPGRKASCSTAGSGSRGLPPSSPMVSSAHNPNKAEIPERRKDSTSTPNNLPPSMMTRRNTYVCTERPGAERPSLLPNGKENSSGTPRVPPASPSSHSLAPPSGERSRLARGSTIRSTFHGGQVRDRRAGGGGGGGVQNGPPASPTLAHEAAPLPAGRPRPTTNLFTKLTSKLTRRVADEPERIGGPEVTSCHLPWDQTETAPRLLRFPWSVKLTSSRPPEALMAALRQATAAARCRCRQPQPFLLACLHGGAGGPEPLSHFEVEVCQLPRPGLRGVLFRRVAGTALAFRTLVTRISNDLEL
Outline: as §1

[9] = target: T9, ~100 representative kinases (Homo sapiens, UniProt Q96RR4); settings: Protein CAMKK2; average of three replicates
T9 construct: Recombinant protein kinase domains with a concentration of 2 μM
Outline: as §1

[10] = target: T10, ~100 representative kinases (Homo sapiens, UniProt Q9Y6E0); settings: protein MST3; average of three replicates
T10 construct: Recombinant protein kinase domains with a concentration of 2 μM
Outline: as §1

T9 sequence (Q96RR4 whole entry, the tested form may be a part): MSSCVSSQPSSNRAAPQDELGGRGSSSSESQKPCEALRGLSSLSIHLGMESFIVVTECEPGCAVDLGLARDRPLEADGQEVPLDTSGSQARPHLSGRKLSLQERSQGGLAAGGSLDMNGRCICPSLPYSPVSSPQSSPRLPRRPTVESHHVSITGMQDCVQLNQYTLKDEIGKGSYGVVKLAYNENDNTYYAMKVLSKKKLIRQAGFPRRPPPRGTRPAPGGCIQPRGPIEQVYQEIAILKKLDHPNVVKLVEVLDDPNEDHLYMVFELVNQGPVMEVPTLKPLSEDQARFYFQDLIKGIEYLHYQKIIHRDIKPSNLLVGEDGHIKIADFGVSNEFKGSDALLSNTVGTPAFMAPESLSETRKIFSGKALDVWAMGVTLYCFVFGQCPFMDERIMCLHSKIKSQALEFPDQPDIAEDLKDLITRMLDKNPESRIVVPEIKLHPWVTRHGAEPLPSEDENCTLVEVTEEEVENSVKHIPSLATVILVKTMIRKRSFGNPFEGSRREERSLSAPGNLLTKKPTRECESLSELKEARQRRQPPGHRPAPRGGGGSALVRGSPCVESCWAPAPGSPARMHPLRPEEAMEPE
T3 sequence (P21675 whole entry, the tested form may be a part): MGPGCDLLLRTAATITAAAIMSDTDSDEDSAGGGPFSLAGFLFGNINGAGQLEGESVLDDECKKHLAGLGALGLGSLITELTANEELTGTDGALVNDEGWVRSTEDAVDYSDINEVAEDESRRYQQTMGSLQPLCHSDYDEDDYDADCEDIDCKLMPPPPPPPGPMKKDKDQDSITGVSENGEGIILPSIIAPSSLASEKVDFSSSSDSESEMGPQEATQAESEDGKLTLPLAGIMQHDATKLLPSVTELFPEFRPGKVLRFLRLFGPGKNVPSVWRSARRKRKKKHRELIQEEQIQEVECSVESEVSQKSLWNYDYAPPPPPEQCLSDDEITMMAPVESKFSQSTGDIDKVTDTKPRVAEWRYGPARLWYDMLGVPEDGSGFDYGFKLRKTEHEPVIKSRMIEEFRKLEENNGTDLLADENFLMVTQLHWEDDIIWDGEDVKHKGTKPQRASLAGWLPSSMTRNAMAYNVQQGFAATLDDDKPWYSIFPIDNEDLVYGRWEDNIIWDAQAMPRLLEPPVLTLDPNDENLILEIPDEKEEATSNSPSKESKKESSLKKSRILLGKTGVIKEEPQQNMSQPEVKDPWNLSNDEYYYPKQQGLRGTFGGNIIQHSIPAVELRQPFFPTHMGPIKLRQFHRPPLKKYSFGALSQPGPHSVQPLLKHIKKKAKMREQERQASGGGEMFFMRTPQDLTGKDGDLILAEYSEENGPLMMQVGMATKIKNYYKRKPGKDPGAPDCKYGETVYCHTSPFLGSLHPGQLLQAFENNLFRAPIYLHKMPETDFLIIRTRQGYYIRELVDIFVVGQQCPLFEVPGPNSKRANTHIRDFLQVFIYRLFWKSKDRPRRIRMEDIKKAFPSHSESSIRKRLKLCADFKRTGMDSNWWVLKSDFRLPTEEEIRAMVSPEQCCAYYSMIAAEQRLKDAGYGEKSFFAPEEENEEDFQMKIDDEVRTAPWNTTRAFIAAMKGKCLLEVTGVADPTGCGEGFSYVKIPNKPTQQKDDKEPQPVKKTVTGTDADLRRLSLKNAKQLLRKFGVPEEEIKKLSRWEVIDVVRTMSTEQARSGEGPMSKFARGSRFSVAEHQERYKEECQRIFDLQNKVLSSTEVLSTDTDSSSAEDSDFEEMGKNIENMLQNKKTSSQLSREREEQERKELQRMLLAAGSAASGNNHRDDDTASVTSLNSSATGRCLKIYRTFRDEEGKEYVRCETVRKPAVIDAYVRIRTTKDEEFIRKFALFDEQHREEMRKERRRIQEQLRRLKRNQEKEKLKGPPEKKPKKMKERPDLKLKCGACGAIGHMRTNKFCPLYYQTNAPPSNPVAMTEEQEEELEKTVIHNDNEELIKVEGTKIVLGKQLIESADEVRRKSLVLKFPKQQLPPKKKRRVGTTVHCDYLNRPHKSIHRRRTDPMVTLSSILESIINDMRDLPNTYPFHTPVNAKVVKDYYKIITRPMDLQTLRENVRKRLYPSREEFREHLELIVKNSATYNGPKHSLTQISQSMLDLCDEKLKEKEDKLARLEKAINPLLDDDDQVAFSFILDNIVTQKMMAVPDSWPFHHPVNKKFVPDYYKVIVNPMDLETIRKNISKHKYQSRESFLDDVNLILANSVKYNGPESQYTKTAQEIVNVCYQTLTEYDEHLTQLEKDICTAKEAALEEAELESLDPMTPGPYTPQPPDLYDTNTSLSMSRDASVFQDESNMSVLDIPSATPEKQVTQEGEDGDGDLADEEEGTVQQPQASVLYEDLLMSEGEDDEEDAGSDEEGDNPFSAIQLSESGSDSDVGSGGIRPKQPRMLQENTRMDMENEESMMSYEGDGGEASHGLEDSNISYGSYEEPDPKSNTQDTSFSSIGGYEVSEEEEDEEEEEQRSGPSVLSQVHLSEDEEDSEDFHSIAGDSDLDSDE
T6 sequence (Q15418 whole entry, the tested form may be a part): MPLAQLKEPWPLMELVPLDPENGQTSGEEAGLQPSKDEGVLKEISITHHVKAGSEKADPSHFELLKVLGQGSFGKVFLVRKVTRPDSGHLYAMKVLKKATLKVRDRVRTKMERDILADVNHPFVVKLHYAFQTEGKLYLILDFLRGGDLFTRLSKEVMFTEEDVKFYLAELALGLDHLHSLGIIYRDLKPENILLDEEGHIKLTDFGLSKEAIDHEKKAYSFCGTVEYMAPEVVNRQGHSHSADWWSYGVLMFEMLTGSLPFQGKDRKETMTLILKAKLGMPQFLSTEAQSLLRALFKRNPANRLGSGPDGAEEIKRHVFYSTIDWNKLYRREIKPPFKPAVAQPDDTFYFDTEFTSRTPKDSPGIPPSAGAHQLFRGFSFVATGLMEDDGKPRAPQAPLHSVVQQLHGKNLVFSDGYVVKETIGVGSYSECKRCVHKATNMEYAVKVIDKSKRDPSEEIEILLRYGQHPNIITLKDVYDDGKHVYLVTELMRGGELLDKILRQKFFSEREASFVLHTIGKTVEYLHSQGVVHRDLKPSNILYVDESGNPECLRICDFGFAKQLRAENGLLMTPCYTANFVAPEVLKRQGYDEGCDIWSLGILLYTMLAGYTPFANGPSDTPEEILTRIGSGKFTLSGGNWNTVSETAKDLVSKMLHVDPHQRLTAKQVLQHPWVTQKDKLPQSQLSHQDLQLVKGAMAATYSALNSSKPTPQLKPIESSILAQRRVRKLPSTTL
T10 sequence (Q9Y6E0 whole entry, the tested form may be a part): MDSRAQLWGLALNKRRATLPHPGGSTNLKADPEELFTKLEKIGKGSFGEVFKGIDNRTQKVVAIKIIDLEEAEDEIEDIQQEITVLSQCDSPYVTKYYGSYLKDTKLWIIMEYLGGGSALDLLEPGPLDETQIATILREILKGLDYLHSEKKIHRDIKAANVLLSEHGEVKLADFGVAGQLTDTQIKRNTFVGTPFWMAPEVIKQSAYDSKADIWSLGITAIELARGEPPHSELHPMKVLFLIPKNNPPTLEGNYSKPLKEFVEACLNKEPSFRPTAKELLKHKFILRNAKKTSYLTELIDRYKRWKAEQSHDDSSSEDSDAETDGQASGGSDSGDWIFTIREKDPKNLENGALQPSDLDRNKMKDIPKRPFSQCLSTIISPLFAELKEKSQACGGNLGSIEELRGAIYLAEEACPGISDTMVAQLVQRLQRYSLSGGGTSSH
T4 sequence (P21802 22-821): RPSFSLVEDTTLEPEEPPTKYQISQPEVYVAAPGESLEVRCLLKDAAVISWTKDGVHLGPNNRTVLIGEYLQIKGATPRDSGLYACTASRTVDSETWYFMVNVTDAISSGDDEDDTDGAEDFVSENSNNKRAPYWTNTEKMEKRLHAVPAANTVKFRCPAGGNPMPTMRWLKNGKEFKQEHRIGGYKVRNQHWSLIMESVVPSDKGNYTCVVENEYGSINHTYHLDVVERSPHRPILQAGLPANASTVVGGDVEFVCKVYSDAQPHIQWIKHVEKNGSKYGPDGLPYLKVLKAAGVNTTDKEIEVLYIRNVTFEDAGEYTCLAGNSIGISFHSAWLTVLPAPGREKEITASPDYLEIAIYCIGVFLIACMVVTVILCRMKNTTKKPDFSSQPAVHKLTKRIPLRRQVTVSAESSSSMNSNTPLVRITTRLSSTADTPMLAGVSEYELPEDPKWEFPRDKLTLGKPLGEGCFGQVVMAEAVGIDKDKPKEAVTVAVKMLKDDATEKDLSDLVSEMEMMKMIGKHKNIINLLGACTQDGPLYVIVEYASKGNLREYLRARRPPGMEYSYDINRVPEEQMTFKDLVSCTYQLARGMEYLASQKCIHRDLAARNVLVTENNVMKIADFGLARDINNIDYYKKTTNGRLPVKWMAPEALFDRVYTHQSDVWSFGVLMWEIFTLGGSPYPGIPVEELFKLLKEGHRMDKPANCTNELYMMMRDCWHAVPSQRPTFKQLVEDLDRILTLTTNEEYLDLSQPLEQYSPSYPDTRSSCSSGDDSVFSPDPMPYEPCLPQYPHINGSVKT

Compound	dTm [1]	dTm [2]	dTm [3]	dTm [4]	dTm [5]	dTm [6]	dTm [7]	dTm [8]	dTm [10]	dTm [9]
Cc1cc(NC(=O)C2(C(=O)Nc3cccc(-c4c[nH]c5ncnc(N6CCOCC6)c45)c3)CC2)ccc1F [Compound 20]	8.40 K	7.70 K	0.99 K	4.17 K	1.19 K	0.33 K	1.71 K	6.75 K	8.98 K	10.45 K
CN[C@@H]1C[C@H]2O[C@@](C)([C@@H]1OC)n1c3ccccc3c3c4c(c5c6ccccc6n2c5c31)C(=O)NC4 [Staurosporine]	20.49 K	13.79 K	0.52 K		4.25 K		16.71 K	15.90 K		24.44 K
O=C(Nc1cccc(-c2c[nH]c3ncnc(N4CCOCC4)c23)c1)C1(C(=O)Nc2ccc(F)cc2F)CC1 [Compound 23]	6.33 K	0.48 K	0.59 K	2.08 K	1.54 K	0.27 K	-0.33 K	2.83 K	5.25 K	5.31 K
O=C(Nc1cc(F)cc(Br)c1)C1(C(=O)Nc2cccc(-c3c[nH]c4ncnc(N5CCOCC5)c34)c2)CC1 [Compound 27]	4.77 K	0.67 K	-2.32 K	2.02 K	-2.11 K	0.00 K	-0.05 K	1.77 K	3.03 K	3.64 K
Cc1ccc(C(=O)Nc2ccc(CN3CCN(C)CC3)c(C(F)(F)F)c2)cc1C#Cc1cnc2[nH]ncc2c1 [GZD-824, reference compound]	3.67 K	8.48 K	-0.68 K	13.32 K	0.45 K	9.39 K	0.45 K	1.02 K	10.01 K	8.63 K
CNC(=O)c1cc(Oc2ccc(NC(=O)Nc3cc(C(C)(C)C)nn3-c3ccc4ncccc4c3)c(F)c2)ccn1 [Rebastinib, reference compound]	1.83 K		-2.54 K	10.35 K	2.06 K	1.31 K	6.29 K	2.04 K		8.93 K
COc1cc2c(Oc3ccc(NC(=O)C4(C(=O)Nc5ccc(F)cc5)CC4)cc3F)ccnc2cc1OCCCN1CCOCC1 [Foretinib, reference compound]		0.57 K	0.54 K	7.20 K	1.91 K	-0.88 K	-0.88 K	1.64 K	4.06 K	10.75 K
Cc1ccc(C(=O)Nc2ccc(CN3CCN(C)CC3)c(C(F)(F)F)c2)cc1C#Cc1cnc2cccnn12 [Ponatinib, reference compound]	1.61 K		-0.60 K	12.49 K		9.86 K		-0.48 K		
Cn1cc(-c2c[nH]c3ncnc(N4CCOCC4)c23)cc1C#N [PFE-360]	8.08 K	0.69 K	-0.43 K	0.89 K		1.09 K	0.58 K	3.49 K	2.72 K	5.91 K

The next lines start with results.

dTm [1]	dTm [2]	dTm [3]	dTm [4]	dTm [5]	dTm [6]	dTm [7]	dTm [8]	dTm [10]	Compound	dTm [9]
3.65 K	3.91 K	-0.58 K	0.49 K	0.39 K	0.64 K	0.92 K	-0.13 K	0.91 K	CCNc1nc(Nc2cc(F)c(C(=O)N3CCOCC3)cc2OC)ncc1C(F)(F)F [GNE-7915]	1.38 K
6.69 K	1.50 K	1.24 K	3.68 K	0.62 K	-0.38 K	-1.29 K	4.58 K	0.95 K	CC(C)(C)c1cccc(NC(=O)C2(C(=O)Nc3cccc(-c4c[nH]c5ncnc(N6CCOCC6)c45)c3)CC2)c1 [Compound 22]	9.68 K
0.55 K	8.01 K	-2.02 K	-0.09 K	-1.71 K	-0.67 K	0.67 K	-0.53 K	3.03 K	CC(=O)N1CCN(c2nc(Cl)nc3[nH]cc(-c4cccc(NC(=O)Nc5cc(C(C)(C)C)nn5-c5ccc(C)cc5)c4)c23)CC1 [Compound 31]	
4.13 K	11.96 K	-10.70 K	-0.19 K	-0.44 K	0.38 K	0.33 K	3.91 K	6.78 K	Cc1ccc(-n2nc(C(C)(C)C)cc2NC(=O)Nc2cccc(-c3c[nH]c4ncnc(N5CCOCC5)c34)c2)cc1 [Compound 29]	
-0.19 K	1.80 K	1.43 K	-0.14 K	-1.77 K	0.36 K	0.48 K	0.42 K	-2.45 K	COc1cc(S(C)(=O)=O)ccc1Nc1nc(N(C)C)c2c(Cl)c[nH]c2n1 [Compound 37]	
1.21 K	7.61 K	-4.89 K	-0.31 K	-0.71 K	-0.59 K	-1.11 K	-1.19 K	0.96 K	Cc1ccc(-n2nc(C(C)(C)C)cc2NC(=O)Nc2cccc(-c3c[nH]c4nc(Cl)nc(N5CCOCC5)c34)c2)cc1 [Compound 30]	
3.22 K	2.79 K	1.23 K	-0.36 K	-0.68 K	1.99 K	-0.33 K	-0.63 K	-3.75 K	COc1cc(C(=O)N2CCOCC2)c(F)cc1Nc1nc(N(C)C)c2c(Cl)c[nH]c2n1 [Compound 36]	
